Legend:
[1] = Human liver microsome stability; type: in vitro ADME; conditions: percentage of hepatic blood flow
Protocol: The stability of the claimed compounds was determined in the presences of human liver microsomes. The compounds were incubated with the microsomes at 37° C. for 45 minutes. Samples were analyzed using LC-MS/MS. Data analysis included half-life, clearance rate, and the percentage of hepatic blood flow (% QH) for each of the compounds in the different species.

[2] = tested on: HBCx1 model; assay: Tumor growth inhibition, subcutaneous engrafted tumor model; type: in vivo, mice; conditions: HRD Positive, RAD51 High, BRCA WT, PALB2 WT, 67A 80 mg/kg QD, olaparib 100 mg/kg QD, combo both
Protocol: (§1) Immunodeficient mice were subcutaneously engrafted in the rear flank with the tumor cells. The tumors were allowed to grow to a size of about 100 to about 200 mm^3 prior to being randomized and grouped into treatment arms. For models […] through […] the four treatment arms were vehicle, Compound 67A at 80 mg/kg QD, olaparib at 100 mg/kg QD, and Compound 67A+Olaparib at 80 mg/kg QD and 100 mg/kg QD, respectively. For models J000101173 through TM00091 the treatment arms were vehicle, Compound 67A at 40 mg/kg QD, olaparib at 50 mg/kg QD, and Compound 67A+Olaparib at 40 mg/kg QD and 50 mg/kg QD, respectively. The tumors were measured either once weekly or twice weekly.
(§2) Percent Tumor Growth Inhibition (% TGI) was calculated by taking the mean volume of each of the treatment arms, and comparing the treatment arms to the vehicle arms using the following equation

[3] = tested on: HBCx12B model; assay: as above; type: in vivo, mice; conditions: HRD Positive, RAD51 High, BRCA1 Meth, PALB2 WT, 67A 80 mg/kg QD, olaparib 100 mg/kg QD, combo both
Protocol: as §1, §2

[4] = tested on: HBCx27 model; assay: as above; type: in vivo, mice; conditions: HRD Negative, RAD51 High, BRCA WT, PALB2 WT, 67A 80 mg/kg QD, olaparib 100 mg/kg QD, combo both
Protocol: as §1, §2

[5] = tested on: J000100675 model; assay: as above; type: in vivo, mice; conditions: HRD Negative, RAD51 Low, BRCA WT, PALB2 WT, 67A 40 mg/kg QD, olaparib 50 mg/kg QD, combo both
Protocol: as §1, §2

[6] = tested on: J000101173 model; assay: as above; type: in vivo, mice; conditions: HRD Positive, RAD51 Low, BRCA WT, PALB2 WT, 67A 40 mg/kg QD, olaparib 50 mg/kg QD, combo both
Protocol: as §1, §2

[7] = tested on: TM000113 model; assay: as above; type: in vivo, mice; conditions: HRD Negative, RAD51 Low, BRCA WT, PALB2 WT, 67A 40 mg/kg QD, olaparib 50 mg/kg QD, combo both
Protocol: as §1, §2

[8] = tested on: TM00090 model; assay: as above; type: in vivo, mice; conditions: HRD Positive, RAD51 Low, BRCA1 Meth, BRCA2 Mut, PALB2 WT, 67A 40 mg/kg QD, olaparib 50 mg/kg QD, combo both
Protocol: as §1, §2

[9] = tested on: TM01079 model; assay: as above; type: in vivo, mice; conditions: HRD Positive, RAD51 Low, BRCA1 Meth, PALB2 WT, 67A 40 mg/kg QD, olaparib 50 mg/kg QD, combo both
Protocol: as §1, §2

CC(C)OC(=O)Nc1ccc(-c2cnc([C@H]3CC[C@H](NC(=O)OC(C)C)CC3)s2)c(S(=O)(=O)NC(C)(C)C)c1 [Compound 67A, trans-isopropylN-[3-(tert-butylsulfamoyl)-4-[2-[4-(isopropoxycarbonylamino)cyclohexyl]thiazol-5-yl]phenyl]carbamate]
Human Liver Microsome Stability % QH [1]: <20.3%
% TGI [2]: 28.75%
% TGI [3]: −3.27%
% TGI [4]: 13.14%
% TGI [5]: 36.69%
% TGI [6]: 19.87%
% TGI [7]: 7.24%
% TGI [8]: 51.82%
% TGI [9]: 26.73%
